These results are taken from US20220089592A1, “IMIDAZO[1,2-A]PYRIDINYL DERIVATIVES AS IRAK4 INHIBITORS” (priority 2019, published 2022).

Counter-ions that a name gives are not always drawn.

The target in the assay is T1, IRAK4 (Homo sapiens, UniProt Q9NWZ3).
T1 sequence (Q9NWZ3 1-460): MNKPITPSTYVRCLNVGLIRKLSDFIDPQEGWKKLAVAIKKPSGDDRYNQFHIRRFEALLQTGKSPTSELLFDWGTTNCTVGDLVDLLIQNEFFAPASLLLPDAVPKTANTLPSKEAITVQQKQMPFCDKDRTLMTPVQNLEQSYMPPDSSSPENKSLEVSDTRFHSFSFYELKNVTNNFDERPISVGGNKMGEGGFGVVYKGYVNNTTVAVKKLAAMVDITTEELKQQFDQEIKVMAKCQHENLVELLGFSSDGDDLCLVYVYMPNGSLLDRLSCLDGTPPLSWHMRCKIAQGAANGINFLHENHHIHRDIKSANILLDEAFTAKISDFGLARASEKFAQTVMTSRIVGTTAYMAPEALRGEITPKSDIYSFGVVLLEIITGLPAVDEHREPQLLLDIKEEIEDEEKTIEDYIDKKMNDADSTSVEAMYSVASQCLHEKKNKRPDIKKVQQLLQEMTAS
Briefly: 2-hour 1 mM ATP IRAK4 Biochemical assay (as above, but with 100 pM IRAK4 and 1 mM ATP). The settings on record: IRAK4 MSD BIOCHEMICAL (1 mM ATP) IC50 (μM), 100 pM IRAK4, 2 hours. The method in brief: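 Run with 100 pM IRAK4 and 1 mM ATP for 2 hours, quenched with EDTA pH 8. Phosphorylated biotinylated peptide captured on streptavidin MSD plates and detected with anti-phosphothreonine antibody plus Sulfo-Tag secondary by electrochemiluminescence.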
By IC50 is commonly meant the point on the concentration scale where inhibition reaches its midpoint. A lower IC50 goes with greater potency. `CC(C)Oc1nc2nc(C3CCOCC3)cn2cc1NC(=O)c1cccc2c1OCC2(F)F` [Example 487, 3,3-difluoro-N-(7-isopropoxy-2-(tetrahydro-2H-pyran-4-yl)imidazo[1,2-a]pyrimidin-6-yl)-2,3-dihydrobenzofuran-7-carboxamide] displayed an IC50 of 0.001 µM. Compound `COc1ccccc1C(=O)Nc1cn2cc(C34COC(C)(C3)C4)nc2nc1OC(C)C` [Example 488, N-(7-isopropoxy-2-(1-methyl-2-oxabicyclo[2.1.1]hexan-4-yl)imidazo[1,2-a]pyrimidin-6-yl)-2-methoxybenzamide] yielded an IC50 of 0.002 µM.

`COc1c(F)cccc1C(=O)Nc1cn2cc(C34COC(C)(C3)C4)nc2nc1OC(C)C` [Example 489, 3-fluoro-N-(7-isopropoxy-2-(1-methyl-2-oxabicyclo[2.1.1]hexan-4-yl)imidazo[1,2-a]pyrimidin-6-yl)-2-methoxybenzamide 2,2,2-trifluoroacetate] registered a 50% inhibitory concentration (IC50) of 0.003 µM. The compound `Cc1cccc(C(=O)Nc2cn3cc(C45COC(C)(C4)C5)nc3nc2OC(C)C)c1F` [Example 490, 2-fluoro-N-(7-isopropoxy-2-(1-methyl-2-oxabicyclo[2.1.1]hexan-4-yl)imidazo[1,2-a]pyrimidin-6-yl)-3-methylbenzamide] had a half-maximal inhibitory concentration (IC50) of 0.001 µM.

In turn, `CC(C)Oc1nc2nc(C34COC(C)(C3)C4)cn2cc1NC(=O)c1cccc(C2CCOC2)n1` (stereo not shown) [Example 493, N-(7-isopropoxy-2-(1-methyl-2-oxabicyclo[2.1.1]hexan-4-yl)imidazo[1,2-a]pyrimidin-6-yl)-6-(tetrahydrofuran-3-yl)picolinamide] had an IC50 of 0.001 µM. In turn, `CC(C)Oc1nc2nc(C34COC(C)(C3)C4)cn2cc1NC(=O)c1cccc(OC2CC2)n1` [Example 494, 6-cyclopropoxy-N-(7-isopropoxy-2-(1-methyl-2-oxabicyclo[2.1.1]hexan-4-yl)imidazo[1,2-a]pyrimidin-6-yl)picolinamide] yielded a concentration for half-maximal inhibition (IC50) of 0.006 µM. `CC(C)Oc1nc2nc(C34COC(C)(C3)C4)cn2cc1NC(=O)c1ccnc2ccnn12` [Example 495, N-(7-isopropoxy-2-(1-methyl-2-oxabicyclo[2.1.1]hexan-4-yl)imidazo[1,2-a]pyrimidin-6-yl)pyrazolo[1,5-a]pyrimidine-7-carboxamide] showed a concentration for half-maximal inhibition (IC50) of 0.007 µM. For `CC(C)Oc1nc2nc(C34COC(C)(C3)C4)cn2cc1NC(=O)c1cccn(C(F)F)c1=O` [Example 496, 1-(difluoromethyl)-N-(7-isopropoxy-2-(1-methyl-2-oxabicyclo[2.1.1]hexan-4-yl)imidazo[1,2-a]pyrimidin-6-yl)-2-oxo-1,2-dihydropyridine-3-carboxamide 2,2,2-trifluoroacetate], half-maximal inhibition (IC50) required 0.001 µM. The compound `CC(C)Oc1nc2nc(C34COC(C)(C3)C4)cn2cc1NC(=O)c1ccn(C)n1` [Example 497, N-(7-isopropoxy-2-(1-methyl-2-oxabicyclo[2.1.1]hexan-4-yl)imidazo[1,2-a]pyrimidin-6-yl)-1-methyl-1H-pyrazole-3-carboxamide] displayed an IC50 of 0.006 µM.

As for `CC(C)Oc1nc2nc(C34COC(C)(C3)C4)cn2cc1NC(=O)c1ccn(C(F)F)n1` [Example 498, 1-(difluoromethyl)-N-(7-isopropoxy-2-(1-methyl-2-oxabicyclo[2.1.1]hexan-4-yl)imidazo[1,2-a]pyrimidin-6-yl)-1H-pyrazole-3-carboxamide], the midpoint of inhibition, the IC50, lay at 0.001 µM. In the case of `CC(C)Oc1nc2nc(C34COC(C)(C3)C4)cn2cc1NC(=O)c1csc(C(F)(F)F)n1` [Example 499, N-(7-isopropoxy-2-(1-methyl-2-oxabicyclo[2.1.1]hexan-4-yl)imidazo[1,2-a]pyrimidin-6-yl)-2-(trifluoromethyl)thiazole-4-carboxamide], half-maximal inhibition (IC50) required 0.001 µM. In the case of `CC(C)Oc1nc2nc(C3C4COCC43)cn2cc1NC(=O)c1ccn(C)n1` (stereo not shown) [Example 500, N-(2-(3-oxabicyclo[3.1.0]hexan-6-yl)-7-isopropoxyimidazo[1,2-a]pyrimidin-6-yl)-1-methyl-1H-pyrazole-3-carboxamide Hydrochloride] it was 0.005 µM; in that of `CC(C)Oc1nc2nc(C3C4COCC43)cn2cc1NC(=O)c1ccn(C(C)C)n1` (stereo not shown) [Example 501, N-(2-(3-oxabicyclo[3.1.0]hexan-6-yl)-7-isopropoxyimidazo[1,2-a]pyrimidin-6-yl)-1-isopropyl-1H-pyrazole-3-carboxamide hydrochloride], 0.002 µM. Compound `CC(C)Oc1nc2nc(C3C4COCC43)cn2cc1NC(=O)c1ccn(CC(F)F)n1` (stereo not shown) [Example 503, N-(2-(3-oxabicyclo[3.1.0]hexan-6-yl)-7-isopropoxyimidazo[1,2-a]pyrimidin-6-yl)-1-(2,2-difluoroethyl)-1H-pyrazole-3-carboxamide] returned an IC50 of 0.002 µM. For the compound `CC(C)Oc1nc2nc(C3C4COCC43)cn2cc1NC(=O)c1coc(C(C)C)n1` (stereo not shown) [Example 504, N-(2-(3-oxabicyclo[3.1.0]hexan-6-yl)-7-isopropoxyimidazo[1,2-a]pyrimidin-6-yl)-2-isopropyloxazole-4-carboxamide], the IC50 amounted to 0.002 µM. As to `COc1ncccc1C(=O)Nc1cn2cc(C34COC(C)(C3)C4)nc2nc1OC1CC1` [Example 505, N-(7-cyclopropoxy-2-(1-methyl-2-oxabicyclo[2.1.1]hexan-4-yl)imidazo[1,2-a]pyrimidin-6-yl)-2-methoxynicotinamide 2,2,2-trifluoroacetate], 0.007 µM corresponded to half-maximal inhibition (IC50). On to `COc1cc2nc(C34COC(C)(C3)C4)cn2cc1NC(=O)c1cccc(C(F)F)n1` [Example 515, 6-(difluoromethyl)-N-(7-methoxy-2-(1-methyl-2-oxabicyclo[2.1.1]hexan-4-yl)imidazo[1,2-a]pyridin-6-yl)picolinamide 2,2,2-trifluoroacetate], for which it took 0.001 µM to reach half-maximal inhibition (IC50). Next, `CCOc1cc2nc(C34COCC3C4)cn2cc1NC(=O)c1cccc(C(F)F)n1` (stereo not shown) [Example 518, N-(2-(3-oxabicyclo[3.1.0]hexan-1-yl)-7-ethoxyimidazo[1,2-a]pyridin-6-yl)-6-(difluoromethyl)picolinamide]: 0.001 µM; `CC(C)Oc1cc2nc(-c3ccnn3C)cn2cc1NC(=O)c1cccc(C(F)F)n1` [Example 525, 6-(difluoromethyl)-N-(7-isopropoxy-2-(1-methyl-1H-pyrazol-5-yl)imidazo[1,2-a]pyridin-6-yl)picolinamide]: 0.002 µM. The compound `CC(C)Oc1cc2nc(C3CC3)cn2cc1NC(=O)c1cccc(C(F)F)n1` [Example 526, N-(2-cyclopropyl-7-isopropoxyimidazo[1,2-a]pyridin-6-yl)-6-(difluoromethyl)picolinamide] displayed a half-inhibitory concentration (IC50) of 0.001 µM. In the case of `COCC(C)(C)c1cn2cc(NC(=O)c3cccc(C(F)F)n3)c(OC(C)C)cc2n1` [Example 527, 6-(difluoromethyl)-N-(7-isopropoxy-2-(1-methoxy-2-methylpropan-2-yl)imidazo[1,2-a]pyridin-6-yl)picolinamide], the 50% inhibitory concentration (IC50) amounted to 0.003 µM. Take `CC(C)Oc1cc2nc(C3CC3)cn2cc1NC(=O)c1ccn(C(F)F)n1` [Example 528, N-(2-cyclopropyl-7-isopropoxyimidazo[1,2-a]pyridin-6-yl)-1-(difluoromethyl)-1H-pyrazole-3-carboxamide]: half-maximal inhibition (IC50) required 0.004 µM. In the case of `Cc1nc(C(=O)Nc2cn3cc(C45COC(C)(C4)C5)nc3cc2OC(C)C)co1` [Example 529, N-(7-isopropoxy-2-(1-methyl-2-oxabicyclo[2.1.1]hexan-4-yl)imidazo[1,2-a]pyridin-6-yl)-2-methyloxazole-4-carboxamide], the IC50 was determined as 0.001 µM. Compound `CC(C)Oc1cc2nc(C3CCOC3)cn2cc1NC(=O)c1cccc(C(F)F)n1` (stereo not shown) [Example 530, 6-(difluoromethyl)-N-(7-isopropoxy-2-(tetrahydrofuran-3-yl)imidazo[1,2-a]pyridin-6-yl)picolinamide 2,2,2-trifluoroacetate] came in with an IC50 of 0.045 µM. Consider `COc1cc(NC(=O)c2cccc(C(F)F)n2)cn2cc(C34CC(F)(C3)C4)nc12` [Example 535, 6-(difluoromethyl)-N-(2-(3-fluorobicyclo[1.1.1]pentan-1-yl)-8-methoxyimidazo[1,2-a]pyridin-6-yl)picolinamide], for which half-maximal inhibition (IC50) required 0.05 µM.

Turning to `CC(C)Oc1cc2nc(-c3cccc(F)c3)cn2cc1NC(=O)c1cccc(C(F)F)n1` [Example 538, 6-(difluoromethyl)-N-(2-(3-fluorophenyl)-7-isopropoxyimidazo[1,2-a]pyridin-6-yl)picolinamide 2,2,2-trifluoroacetate], the 50% inhibitory concentration (IC50) was 0.003 µM. In turn, `CC(C)Oc1cc2nc(C34CC(F)(C3)C4)cn2cc1NC(=O)c1cccc(C(F)(F)F)n1` [Example 539, N-(2-(3-fluorobicyclo[1.1.1]pentan-1-yl)-7-isopropoxyimidazo[1,2-a]pyridin-6-yl)-6-(trifluoromethyl)picolinamide 2,2,2-trifluoroacetate] gave an IC50 of 0.002 µM. In the case of `CC(C)Oc1c(NC(=O)c2ccn(C(C)C)n2)cn2cc(C34COC(C)(C3)C4)nc2c1F` [Example 546, N-(8-fluoro-7-isopropoxy-2-(1-methyl-2-oxabicyclo[2.1.1]hexan-4-yl)imidazo[1,2-a]pyridin-6-yl)-1-isopropyl-1H-pyrazole-3-carboxamide 2,2,2-trifluoroacetate], the IC50 amounted to 0.001 µM.
